Measured values: ChEMBL document CHEMBL3396992, “Synthesis and biological evaluation of pyrazolylthiazole carboxylic acids as potent anti-inflammatory-antimicrobial agents” (2015)
Converted amounts (≈) assume the structure as drawn. The source made the active and inactive calls. The calls are words filed in the database; no cut-off is given here.

Key:
[1] = tested on: Rattus norvegicus; test: Antiinflammatory activity against carrageenan-induced paw edema male Wistar albino rat assessed as edema volume at 50 mg/kg, po administered 30 mins prior to carrageenan-challenge measured after 1 hr (reference value: 1.11 +/- 0.12 mL); format: functional
[2] = tested on: Staphylococcus aureus; test: Antimicrobial activity against Staphylococcus aureus MTCC 96 assessed as growth inhibition after 24 hrs by agar well diffusion method; format: functional
[3] = tested on: Rattus norvegicus; test: Antiinflammatory activity against carrageenan-induced paw edema male Wistar albino rat at 50 mg/kg, ip administered 30 mins prior to carrageenan-challenge measured after 2 hrs relative to control; format: functional; conditions: route intraperitoneal
[4] = tested on: Candida albicans; test: Antimicrobial activity against Candida albicans MTCC 3017 assessed as growth inhibition at 4 mg/ml after 24 hrs by agar well diffusion method; format: functional; conditions: MTCC 3017, 24 h, read-out: DIZ
[5] = tested on: Pseudomonas aeruginosa; conditions: MTCC 741, 4 mg/ml
Description: Antimicrobial activity against Pseudomonas aeruginosa MTCC 741 assessed as growth inhibition at 4 mg/ml after 24 hrs by agar well diffusion method

[6] = tested on: Rattus norvegicus; test: Antiinflammatory activity against carrageenan-induced paw edema male Wistar albino rat at 50 mg/kg, ip administered 30 mins prior to carrageenan-challenge measured after 3 hrs relative to control; format: functional; conditions: route intraperitoneal
[7] = tested on: Escherichia coli; test: Antimicrobial activity against Escherichia coli MTCC 1652 assessed as growth inhibition at 4 mg/ml after 24 hrs by agar well diffusion method; format: functional, organism-based
[8] = tested on: Staphylococcus aureus; test: Antimicrobial activity against Staphylococcus aureus MTCC 96 assessed as growth inhibition at 4 mg/ml after 24 hrs by agar well diffusion method; format: functional; conditions: for zone of inhibition at 4000 µg/mL: MTCC 96, 24 h, read-out: DIZ
[9] = tested on: Bacillus subtilis; test: Antimicrobial activity against Bacillus subtilis MTCC 121 assessed as growth inhibition after 24 hrs by agar well diffusion method; format: functional
[10] = tested on: Saccharomyces cerevisiae; test: Antimicrobial activity against Saccharomyces cerevisiae MTCC 170 assessed as growth inhibition after 24 hrs by agar well diffusion method; format: functional
[11] = tested on: Candida albicans; test: Antimicrobial activity against Candida albicans MTCC 3017 assessed as growth inhibition after 24 hrs by agar well diffusion method; format: functional; conditions: MTCC 3017, 24 h
[12] = tested on: Rattus norvegicus; test: Antiinflammatory activity against carrageenan-induced paw edema male Wistar albino rat assessed as edema volume at 50 mg/kg, ip administered 30 mins prior to carrageenan-challenge measured after 2 hrs (reference value: 1.21 +/- 0.16 mL); format: functional; conditions: route intraperitoneal
[13] = tested on: Rattus norvegicus; test: Antiinflammatory activity against carrageenan-induced paw edema male Wistar albino rat at 50 mg/kg, ip administered 30 mins prior to carrageenan-challenge measured after 4 hrs relative to control; format: functional; conditions: route intraperitoneal
[14] = tested on: Rattus norvegicus; test: Antiinflammatory activity against carrageenan-induced paw edema male Wistar albino rat at 50 mg/kg, ip administered 30 mins prior to carrageenan-challenge measured after 1 hr relative to control; format: functional; conditions: route intraperitoneal
[15] = tested on: Rattus norvegicus; test: Antiinflammatory activity against carrageenan-induced paw edema male Wistar albino rat assessed as edema volume at 50 mg/kg, ip administered 30 mins prior to carrageenan-challenge measured after 4 hrs (reference value: 1.88 +/- 0.20 mL); format: functional; conditions: route intraperitoneal
[16] = tested on: Rattus norvegicus; test: Antiinflammatory activity against carrageenan-induced paw edema male Wistar albino rat assessed as edema volume at 50 mg/kg, ip administered 30 mins prior to carrageenan-challenge measured after 3 hrs (reference value: 1.73 +/- 0.09 mL); format: functional; conditions: route intraperitoneal
[17] = tested on: Saccharomyces cerevisiae; test: Antimicrobial activity against Saccharomyces cerevisiae MTCC 170 assessed as growth inhibition at 4 mg/ml after 24 hrs by agar well diffusion method; format: functional; conditions: for zone of inhibition at 4000 µg/mL: MTCC 170, 24 h, read-out: DIZ
[18] = tested on: Bacillus subtilis; test: Antimicrobial activity against Bacillus subtilis MTCC 121 assessed as growth inhibition at 4 mg/ml after 24 hrs by agar well diffusion method; format: functional; conditions: for zone of inhibition at 4000 µg/mL: MTCC 121, 24 h, read-out: DIZ

Structure (SMILES)	Activity [1] [mL]	MIC [2]	Activity [3] [%]	zone of inhibition at 4000 µg/mL [4] [mm]	DIZ [5]	Activity [6] [%]	diameter of the inhibition zone (DIZ) [7]	diameter of the inhibition zone (DIZ) [8]	MIC ([9]; MTCC 121, 24 h) [µg/mL]	MIC ([10]; MTCC 170, 24 h) [µg/mL]	MIC [11] [µg/mL]	Activity [12] [mL]	Activity [13] [%]	Activity [14] [%]	Activity [15] [mL]	Activity [16] [mL]	zone of inhibition at 4000 µg/mL [17] [mm]	zone of inhibition at 4000 µg/mL [18] [mm]	MIC [10]	diameter of the inhibition zone (DIZ) [17]	further results
COc1ccc(-c2nc(-c3cn(-c4ccccc4)nc3-c3ccc(Cl)cc3)sc2C(=O)O)cc1	0.15	inactive	89.29	25.3	inactive	90.75	inactive	inactive	25 (≈ 51.2 µM)	50 (≈ 102 µM)	12.5 (≈ 25.6 µM)	0.19	88.82	86.48	0.21	0.16	12	18.3			
CCOC(=O)c1sc(-c2cn(-c3ccccc3)nc2-c2ccc(Cl)cc2)nc1-c1ccc(Cl)cc1	0.18	inactive	77.68	13	inactive	93.06	inactive	inactive		50 (≈ 96.1 µM)	50 (≈ 96.1 µM)	0.27	90.42	83.78	0.18	0.12	15				MIC [9]: inactive; diameter of the inhibition zone (DIZ) [18]: inactive
CCOC(=O)c1sc(-c2cn(-c3ccccc3)nc2-c2ccccc2)nc1-c1ccc(F)cc1	0.29	inactive	81.81	18.6	inactive	82.08	inactive	inactive			25 (≈ 53.2 µM)	0.22	88.29	73.87	0.42	0.31			inactive	inactive	MIC [9]: inactive; diameter of the inhibition zone (DIZ) [18]: inactive
CCOC(=O)c1sc(-c2cn(-c3ccccc3)nc2-c2ccc(OC)cc2)nc1-c1ccc(Cl)cc1	0.15	inactive	68.59	14.3	inactive	78.03	inactive	inactive	50 (≈ 96.9 µM)		50 (≈ 96.9 µM)	0.38	71.8	86.48	0.53	0.38		14.3	inactive	inactive	
CCOC(=O)c1sc(-c2cn(-c3ccccc3)nc2-c2ccccc2)nc1-c1ccc(OC)cc1	0.22	inactive	76.03	16.3	inactive	86.12	inactive	inactive	50 (≈ 104 µM)		50 (≈ 104 µM)	0.29	81.91	80.18	0.34	0.24		13.6	inactive	inactive	
O=C(O)c1sc(-c2cn(-c3ccccc3)nc2-c2ccc(Cl)cc2)nc1-c1ccc(F)cc1	0.29	inactive	72.72	12	inactive	71.67	inactive	inactive		12.5 (≈ 26.3 µM)	50 (≈ 105 µM)	0.33	79.78	73.87	0.38	0.49	24.6				MIC [9]: inactive; diameter of the inhibition zone (DIZ) [18]: inactive
COc1ccc(-c2nn(-c3ccccc3)cc2-c2nc(-c3ccc(F)cc3)c(C(=O)O)s2)cc1	0.19		81.81	12	inactive	82.08	inactive		50 (≈ 106 µM)	50 (≈ 106 µM)	50 (≈ 106 µM)	0.22	90.42	82.88	0.18	0.31	15.3	12			MIC ([2]; MTCC 96, 24 h): 50 µg/mL (≈ 106 µM); zone of inhibition at 4000 µg/mL [8]: 12 mm
CCOC(=O)c1sc(-c2cn(-c3ccccc3)nc2-c2ccc(F)cc2)nc1-c1ccc(F)cc1	0.16	inactive	79.33	22.6	inactive	81.5	inactive	inactive	50 (≈ 103 µM)		12.5 (≈ 25.6 µM)	0.25	87.76	85.58	0.23	0.32		15.6	inactive	inactive	
O=C(O)c1sc(-c2cn(-c3ccccc3)nc2-c2ccccc2)nc1-c1ccccc1	0.24		67.76	17.6	inactive	83.81	inactive		25 (≈ 59 µM)	12.5 (≈ 29.5 µM)	50 (≈ 118 µM)	0.39	84.04	87.37	0.3	0.28	23.6	18.6			MIC ([2]; MTCC 96, 24 h): 12.5 µg/mL (≈ 29.5 µM); zone of inhibition at 4000 µg/mL [8]: 24.6 mm
O=C(O)c1sc(-c2cn(-c3ccccc3)nc2-c2ccc(Cl)cc2)nc1-c1ccccc1	0.32		61.98	24.6	inactive	60.11	inactive		12.5 (≈ 27.3 µM)	6.25 (≈ 13.6 µM)	6.25 (≈ 13.6 µM)	0.46	71.27	71.17	0.54	0.69	26.6	22.6			MIC ([2]; MTCC 96, 24 h): 25 µg/mL (≈ 54.6 µM); zone of inhibition at 4000 µg/mL [8]: 22.6 mm
CCOC(=O)c1sc(-c2cn(-c3ccccc3)nc2-c2ccc(Cl)cc2)nc1-c1ccc(OC)cc1	0.1	inactive	71.07	15.3	inactive	85.54	inactive	inactive	50 (≈ 96.9 µM)		50 (≈ 96.9 µM)	0.35	88.92	90.99	0.21	0.25		15.3	inactive	inactive	
O=C(O)c1sc(-c2cn(-c3ccccc3)nc2-c2ccc(F)cc2)nc1-c1ccc(Cl)cc1	0.33		47.1	20.6	inactive	56.14	inactive		25 (≈ 52.5 µM)	25 (≈ 52.5 µM)	25 (≈ 52.5 µM)	0.64	80.31	70.27	0.37	0.75	20.6	18.3			MIC ([2]; MTCC 96, 24 h): 25 µg/mL (≈ 52.5 µM); zone of inhibition at 4000 µg/mL [8]: 21.6 mm
